Here are results for nine compounds from patent publication US20080051418A1, “Arylalkanoic Acid Derivative” (priority 2004, published 2008).

The target in one data set is T1, PPARγ-RXRα heterodimer (Homo sapiens, UniProt P37231).
T1 construct: expressed in transfected cells; host or cells: CHO-K1
T1 sequence (P37231 1-505): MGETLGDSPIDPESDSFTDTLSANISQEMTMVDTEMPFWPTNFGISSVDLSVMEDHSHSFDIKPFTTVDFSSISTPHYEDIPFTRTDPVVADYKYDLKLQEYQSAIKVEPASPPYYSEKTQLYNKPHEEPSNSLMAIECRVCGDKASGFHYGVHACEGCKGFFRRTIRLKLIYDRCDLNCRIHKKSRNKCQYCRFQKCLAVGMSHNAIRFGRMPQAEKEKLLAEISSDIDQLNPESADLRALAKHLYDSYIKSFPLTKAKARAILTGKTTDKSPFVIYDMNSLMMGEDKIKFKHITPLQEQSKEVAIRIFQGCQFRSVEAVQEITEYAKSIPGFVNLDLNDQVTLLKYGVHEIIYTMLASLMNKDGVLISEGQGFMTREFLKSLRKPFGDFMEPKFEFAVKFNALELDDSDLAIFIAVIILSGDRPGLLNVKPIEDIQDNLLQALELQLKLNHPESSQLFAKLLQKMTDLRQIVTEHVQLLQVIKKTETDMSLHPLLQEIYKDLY
T1 sequence (P19793 1-462 partner): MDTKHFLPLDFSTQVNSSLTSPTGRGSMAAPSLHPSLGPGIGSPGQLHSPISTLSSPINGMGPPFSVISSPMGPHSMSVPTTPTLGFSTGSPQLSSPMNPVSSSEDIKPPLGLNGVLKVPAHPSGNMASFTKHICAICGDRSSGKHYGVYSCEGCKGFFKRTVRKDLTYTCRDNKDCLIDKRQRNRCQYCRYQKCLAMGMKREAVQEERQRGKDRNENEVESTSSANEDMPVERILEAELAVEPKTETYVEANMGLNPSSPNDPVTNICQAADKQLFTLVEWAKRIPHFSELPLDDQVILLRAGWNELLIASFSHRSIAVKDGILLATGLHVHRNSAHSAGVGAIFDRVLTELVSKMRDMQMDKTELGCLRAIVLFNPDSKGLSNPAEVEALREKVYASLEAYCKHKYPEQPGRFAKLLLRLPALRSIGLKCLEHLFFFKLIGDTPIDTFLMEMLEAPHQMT
The data set is described as follows: PPARγ-RXRα heterodimer ligand activity (luciferase reporter). The format is cell-based. Particulars: PPARγ:RXRα:4ERPP/CHO-K1 cells, 18-24 hr, concentration showing 50% of the maximum induction rate. On the procedure:
The PPARγ:RXRα:4ERPP/CHO-K1 cells described in WO03/099793 were cultured in a Ham F12 medium [manufactured by Life Technologies, Inc., US] containing 10% calf fetal serum [manufactured by Life Technologies, Inc., US], sown in a 96-well white plate [manufactured by Corning Coster Corporation, US] at 2×10^4 cells/well, and incubated overnight in a carbon dioxide gas incubator at 37° C.
Then, the medium was removed from the 96 well white plate, 80 μl of Ham F12 medium containing 0.1% fatty acid-free bovine serum albumin (BSA) and a test compound (20 μl) were added, and the cells were incubated for 18-24 hr in a carbon dioxide gas incubator at 37° C. The medium was removed, 40 μl of PicaGene 7.5 (manufactured by Wako Pure Chemical Industries, Ltd.) diluted 2-fold with HBSS (HANKS' BALANCED SALT SOLUTION) [manufactured by BIO WHITTAKER, US] was added. After stirring, the luciferase activity was determined using the 1420 ARVO Multilabel Counter [manufactured by PerkinElmer, US].
The induction rate was calculated from the luciferase activity of each test compound based on the luciferase activity of the test compound non-administration group as 1. The test compound concentration and the induction rate were analyzed by PRISM [manufactured by GraphPad Software, Inc., US] to calculate EC50 value (compound concentration showing 50% of the maximum value of induction rate) of the test compound.

`CCCOc1cc(CCCOc2c(CC(=O)O)cccc2OC)n(Cc2ccccc2OC)n1` [Example 83, (2-{3-[1-(2-methoxybenzyl)-3-propoxy-1H-pyrazol-5-yl]propoxy}-3-methoxyphenyl)acetic acid] returned a melting point of 79 to 82 °C. On PPARγ-RXRα heterodimer, this compound registered a concentration giving a half-maximal response (EC50) of 18 nM.
`CC(C)Oc1cc(CCCOc2ccc3ccccc3c2CC(=O)O)n(Cc2ccc(Cl)cc2Cl)n1` [Example 85, (2-{3-[1-(2,4-dichlorobenzyl)-3-isopropoxy-1H-pyrazol-5-yl]propoxy}-1-naphthyl)acetic acid] returned a melting point of 120 to 122 °C. Further, on PPARγ-RXRα heterodimer, the response was half-maximal at 2.6 nM (EC50).
The compound `CC(C)Oc1cc(CCCOc2nn(Cc3ccccc3)cc2CC(=O)O)n(Cc2ccc(F)cc2Cl)n1` [Example 92, (1-benzyl-3-{3-[1-(2-chloro-4-fluorobenzyl)-3-isopropoxy-1H-pyrazol-5-yl]propoxy}-1H-pyrazol-4-yl)acetic acid] displayed a melting point of 121 to 123 °C. The compound further showed an EC50 at PPARγ-RXRα heterodimer of 5.1 nM.
Compound `CC(C)Oc1cc(CCCOc2ncccc2CC(=O)O)n(Cc2ccc(F)cc2Cl)n1` [Example 93, (2-{3-[1-(2-chloro-4-fluorobenzyl)-3-isopropoxy-1H-pyrazol-5-yl]propoxy}pyridin-3-yl)acetic acid] gave a melting point of 90 to 91 °C. The compound further came in with a half-maximal effective concentration (EC50) on PPARγ-RXRα heterodimer of 42 nM.
Taken in the same sequence, the figures for `CCS(=O)(=O)CCOc1cc(CCCOc2nn(Cc3ccccc3)cc2CC(=O)O)n(Cc2ccc(Cl)cc2Cl)n1` [Example 98, [1-benzyl-3-(3-{1-(2,4-dichlorobenzyl)-3-[2-(ethylsulfonyl)ethoxy]-1H-pyrazol-5-yl}propoxy)-1H-pyrazol-4-yl]acetic acid] were 100.4 to 101.4 °C and 5.1 nM.
On to `CC(C)Oc1ccc(CCCOc2nn(Cc3ccccc3)cc2CC(=O)O)c(Oc2ncc(Cl)cc2Cl)c1` [Example 133, [1-benzyl-3-(3-{2-[(3,5-dichloropyridin-2-yl)oxy]-4-isopropoxyphenyl}propoxy)-1H-pyrazol-4-yl]acetic acid], for which the melting point was in the range of 111 to 113 °C. Besides, the EC50 on PPARγ-RXRα heterodimer was 1.2 nM.
In the case of `CC(C)Oc1ccc(CCCOc2cc(CCC(=O)O)n(Cc3ccccc3)n2)c(Oc2ncc(C(F)(F)F)cc2Cl)c1` [Example 137, 3-{1-benzyl-3-[3-(2-{[3-chloro-5-(trifluoromethyl)pyridin-2-yl]oxy}-4-isopropoxyphenyl)propoxy]-1H-pyrazol-5-yl}propanoic acid], the melting point fell in the range of 99 to 100 °C. The compound also yielded an EC50 at PPARγ-RXRα heterodimer of 0.61 nM.
`CC(C)Oc1ccc(CCCOc2cc(CCC(=O)O)n(C3CCCCC3)n2)c(Oc2ncc(C(F)(F)F)cc2Cl)c1` [Example 144, 3-{3-[3-(2-{[3-chloro-5-(trifluoromethyl)pyridin-2-yl]oxy}-4-isopropoxyphenyl)propoxy]-1-cyclohexyl-1H-pyrazol-5-yl}propanoic acid] gave a melting point of 114 to 115 °C. At PPARγ-RXRα heterodimer, this compound came in with an EC50 of 3.7 nM.
For `CC(C)OCCOc1ccc(CCCOc2nn(C)cc2CC(=O)O)c(Oc2ncc(C(F)(F)F)cc2Cl)c1` [Example 177, (3-{3-[2-{[3-chloro-5-(trifluoromethyl)pyridin-2-yl]oxy}-4-(2-isopropoxyethoxy)phenyl]propoxy}-1-methyl-1H-pyrazol-4-yl)acetic acid], the melting point was in the range of 103.5 to 104.5 °C. Besides, the EC50 on PPARγ-RXRα heterodimer was found to be 1.5 nM.

As a reminder, the melting point is the temperature, or range, at which the solid turns liquid. The term EC50 denotes the concentration needed to bring the measured effect to its halfway point.
